These compounds were tested on yeast-like fungi (C. glabrata) (assay: Flow cytometry of urine specimen spiked with yeast-like fungi: fluorescence stainability of the fungi). Details: average fluorescence signal of yeast-like fungi in human urine without erythrocytes; substance at 1.0 wt % in diluting liquid in place of 2-phenoxyethanol; relative values on scale 0-255.
Type: cell-based
Experimental: A staining liquid was used which was obtained by dissolving a fluorescent dye represented by the following formula in ethylene glycol so that the final concentration in the sample for analysis would be 6 ppm.
In the step S1, the sample preparing section 200 is controlled to execute the preparation of a sample for analysis. The operation of the sample preparing section 200 in the step S1 will be described with reference to FIG. 5. First, the dispensing device 224 sucks 522 μL of a diluting liquid from the sample container 231 of the reagent setting section 222, and then sucks 180 µL of a specimen (human urine) from the specimen container 225 that is set in the specimen setting section 221. The dispensing device 224 then dispenses the sucked diluting liquid and specimen to the reaction vessel 226 that is set in the incubator 223. Next, the dispensing device 224 sucks 18 μL of a staining liquid from the reagent container 227 of the reagent setting section 222, and dispenses the staining liquid to the reaction vessel 226. Thereafter, the incubator 223 stirs the mixture for 10 seconds to stain the diluted specimen while keeping the liquid temperature within the reaction vessel 226 containing the specimen, diluting liquid, and staining liquid to be 35 °C. The sample liquid for analysis thus prepared is sucked by the dispensing device 224, and is supplied to the sample container 233. The sample liquid for analysis supplied to the sample container 233 is let to flow through the flow cell 301 of the detecting section 300.
In the step S2, the detecting section 300 is controlled to detect signals reflecting the characteristics of each particle from the particles in the sample liquid for analysis. The operation of the detecting section 300 in the step S2 will be described with reference to FIG. 6. When the sample liquid is supplied to the sample container 233 as described above, the sample liquid is guided to the nozzle 303 by the operation of pumps and valves (not illustrated). Then, the sample liquid is ejected from the nozzle 303 to the flow cell 301. Simultaneously with this, a sheath liquid is supplied to the flow cell 301 from a sheath liquid container (not illustrated) via a sheath liquid inlet 304. By this, the sample liquid is surrounded by the sheath liquid in the flow cell 301, and is further narrowed down at by the orifice section 302 to flow. By narrowing the flow of the sample liquid, the particles such as erythrocytes and bacteria contained in the sample liquid are arranged in one line to flow through the orifice section 302. A laser beam emitted from the laser light source 306 is condensed by the condenser lens 307 and is radiated to the sample liquid that is flowing through the orifice section 302. The forward scattered light emitted from a particle in the sample liquid irradiated with the laser beam is condensed by the collector lens 309. Then the forward scattered light that has passed through the pinhole 310 is received and subjected to photoelectric conversion by the photodiode 308 to become a pulse-like forward scattered light signal. The fluorescence emitted from the particle in the sample liquid irradiated with the laser beam is condensed by the collector lens 312. Then the fluorescence that has passed through the filter 313 and the pinhole 314 is received and subjected to photoelectric conversion by the photomultiplier tube 311 to become a pulse-like fluorescence signal. The forward scattered light signal and the fluorescence signal are amplified respectively by the amplifiers 315, 316 and are sent to the controlling section 400.
First, the forward scattered light signal and the fluorescence signal detected by the detecting section are input into the signal processing circuit 403.

Row | SMILES | Fluorescence intensity
1 | CC(O)COc1ccccc1 (stereo not shown) [1-phenoxy-2-propanol] | 103
2 | c1ccc2scnc2c1 [Benzothiazole] | 92
3 | OCc1ccccc1 [Benzyl alcohol] | 73
4 | Oc1ccccc1 [Phenol] | 55
5 | CC(=O)Oc1ccccc1 [Phenyl acetate] | 82
6 | OCCc1ccccc1 [β-phenethyl alcohol] | 84

Same assay, conditions: human urine with erythrocytes plus C. glabrata; diluting liquid with 2-phenoxyethanol 7.5 g/l, pH 7.0 (Example 1) versus without (Example 2)

Row | SMILES | Fluorescence intensity of yeast-like fungi compared with erythrocytes (two-dimensional scattergram)
7 | OCCOc1ccccc1 [2-phenoxyethanol] | larger fluorescence intensity than the erythrocytes
